Experimental data taken from article PMC5127787 (Frontiers in Microbiology, 2016).

Target: RecA (Escherichia coli, UniProt P0A7G6)
Assay: biochemical

Sequence of RecA (P0A7G6 2-353): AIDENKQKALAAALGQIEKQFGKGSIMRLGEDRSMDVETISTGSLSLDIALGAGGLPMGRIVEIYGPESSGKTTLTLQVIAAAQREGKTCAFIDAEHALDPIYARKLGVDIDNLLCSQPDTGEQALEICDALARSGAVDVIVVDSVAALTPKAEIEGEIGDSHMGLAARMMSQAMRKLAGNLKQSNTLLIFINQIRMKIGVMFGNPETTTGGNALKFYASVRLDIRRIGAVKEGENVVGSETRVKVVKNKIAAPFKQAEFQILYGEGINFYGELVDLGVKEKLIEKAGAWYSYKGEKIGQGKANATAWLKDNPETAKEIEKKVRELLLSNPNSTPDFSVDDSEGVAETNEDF

CN1CCN(c2ccc(N3C(=O)C=CC3=O)cc2)CC1 [AHU3] showed an IC50 of 7.72 µM.
